According to patent US12161663B2, “Compositions and methods for targeting cells” (Children's Medical Center Corporation, priority 2018, dated 2024):

Legend:
human recombinant TSPO = target: T1, human recombinant TSPO (Homo sapiens, UniProt P30536); assay: Microscale thermophoresis (MST) binding to isolated TSPO; details: 5 nM red-tagged hTSPO
T1 construct: purchased LSBio
Description: The tests were performed by using isolated human recombinant TSPO (purchased from LSBio). The lyophilized protein was resuspended in Tris buffer and stored at −80° C. as per manufacturer instructions. Labelling with a deep-red fluorophore was performed by using the Monolith labeling kit-RED from Nanothemper. Briefly, 200 nM of hTSPO was resuspended in Tris/Sarkosyl 0.1% buffer and then mixed with a solution containing anti-His red-fluorophore at 100 nM concentration. After incubation for 30 minutes at RT, the mixture was centrifuged at 15000 g for 10 minutes at 4° C., to pellet any aggregate or precipitate. […] MST was then performed to assess binding.

BV2 microglia cell line = assay: WST-1 assay of PMA-induced ROS production; format: cell-based
Description: The WST-1 assay allows to measure the ROS produced by cell cultures.

[1] = cited from earlier work

T1 sequence (P30536 whole entry): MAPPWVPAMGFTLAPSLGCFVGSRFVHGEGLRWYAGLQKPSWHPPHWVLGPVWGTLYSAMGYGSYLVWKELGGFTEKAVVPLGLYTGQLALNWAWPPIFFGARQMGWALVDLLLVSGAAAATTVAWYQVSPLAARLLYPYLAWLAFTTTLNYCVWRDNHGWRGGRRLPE

CCC(C)N(C)C(=O)c1cc2ccccc2c(-c2ccccc2Cl)n1 (stereo not drawn) [PK11195]
change in MST profile of tagged hTSPO (human recombinant TSPO; ligand 250 μM): significant change in the MST profile

CN1C(=O)CN=C(c2ccc(Cl)cc2)c2cc(Cl)ccc21 [Ro5-4864]
change in MST profile of tagged hTSPO / binding (human recombinant TSPO; tested at 500 μM): significant change in the MST profile

CCCCCCCCCCCCCC(=O)O[C@@H]1[C@@H](C)[C@@]2(O)[C@@H](C=C(CO)C[C@]3(O)C(=O)C(C)=C[C@@H]23)[C@@H]2C(C)(C)[C@]12OC(C)=O [PMA, phorbol ester myristate acetate]
increase of ROS production as compared to untreated control (BV2 microglia cell line; 50 ng/ml for 6 hours): 30-40%

COc1cc(C(C)=O)cc(-c2cc(C(C)=O)cc(OC)c2O)c1O [Diapocynin]
concentration inhibiting the PMA-induced increase of ROS (BV2 microglia cell line; PMA 50 ng/ml, nominal concentration for encapsulated drug): ≥ 50 µM | pKa [1]: 7.4

c1ccc2c(c1)[I+]c1ccccc1-2 [DPI, diphenylene iodonium]
effect on PMA-induced ROS (BV2 microglia cell line; co-incubation with PMA): able to counteract the induction of ROS
